Measurements: patent US20070092503A1, “Human alkaline sphingomyelinase and use thereof” (priority 2003, published 2007)
Each block holds one molecule with its values, some of them ahead of it.

Legend:
human Alk-Smase [1] = molecular target: T1, human Alk-Smase (Homo sapiens, UniProt Q6UWV6); assay: Alk-Smase activity in the presence of metal ions, detergents, bile salts, glutathione; format: biochemical
T1 construct: Human Alk-Smase has now been purified from small intestinal content; from tissue; host or cells: human small intestinal (ileostomy) content
T1 sequence (Q6UWV6 22-458): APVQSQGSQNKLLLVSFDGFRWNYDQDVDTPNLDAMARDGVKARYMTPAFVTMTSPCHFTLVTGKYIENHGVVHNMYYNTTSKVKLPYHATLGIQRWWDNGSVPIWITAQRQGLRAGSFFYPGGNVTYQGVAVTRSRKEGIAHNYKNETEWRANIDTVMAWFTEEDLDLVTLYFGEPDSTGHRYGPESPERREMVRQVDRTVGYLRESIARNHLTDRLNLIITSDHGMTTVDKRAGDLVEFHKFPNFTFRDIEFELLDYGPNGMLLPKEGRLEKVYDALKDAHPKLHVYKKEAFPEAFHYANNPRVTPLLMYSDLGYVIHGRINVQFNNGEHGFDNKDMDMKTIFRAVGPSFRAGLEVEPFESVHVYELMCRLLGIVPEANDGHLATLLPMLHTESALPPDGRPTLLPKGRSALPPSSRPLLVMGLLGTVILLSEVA
Method: As bile salts are important factors for lipid digestion, the effects of different bile salts on human Alk-Smase were investigated. […] The activities were determined in the presence of different concentrations of bile salts.

human Alk-Smase [2] = molecular target: T1, human Alk-Smase; assay: as above; format: biochemical; remark: listed apart in the source
bacterial neutral Smase = conditions: reduced form
[3] = tested on: HT29 human colon cancer cells; assay: Proliferation of HT29 colon cancer cells, WST reagent; format: cell-based; conditions: for effect on proliferation / cell growth of HT29 cells: different doses, 18 h, WST reagent; for effect on DNA synthesis of HT-29 cells: enzyme added to cells in culture
Method: (§1) HT29 human colon cancer cells were incubated in RMPI-1640 medium with L-glutamine, containing antibiotics and 10% (v/v) heat inactivated fetal calf serum. At the exponential growth phase, the cells were incubated with purified rat Alk-Smase at different doses for 18 h. The cell proliferation rates were measured by WST reagent. Results are Mean± SD of three individual duplicate experiments.
Experimental conditions for the antiproliferative inhibition were that HT 29 cells were incubated with rat Alk-Smase at different doses for 18 h. The cell proliferation rates were measured by WST reagent.
as §1, with “L-glutamine” for “L-glutamine,”, “Mean±SD” for “Mean± SD”

Cos-7 cells = assay: Alk-Smase activity of transfected cells (cell lysate and medium); format: cell-based
Method: Cos 7 cells are transfected with either the wild type of Alk-Smase cDNA (sequence 21-1397 of ID No 5, reading frame) which encodes Seq ID No 4, or transfected with the Alk-Smase cDNA sequence from 21-1285 (C-truncated), which encodes a 415 amino acid sequence (Seq ID No 6). After transfection, the Alk-Smase activity in the medium and in the cell lysate was determined.
pCMV-sports6-Smase is transfected into mammalian Cos-7 cells. To transfect the cells with pCMV-sports6-Smase 4×10^5 Cos-7 cells are seeded in a 25 cm^2 flask in 4 ml of Dulbecco's modified Eagle's medium with 10% heat inactivated fetal calf serum and 2 mM Glutamine.
The cells are incubated until 90% confluent.
Cells are then transfected with 5 microgram pCMV-sports6-Smase and 16 microgram lipofectamine 2000™ in each flask followed by incubation for 48 h.
Untransfected cells are exposed to lipofectamine and treated the same as above.
At the end of the incubation, medium is collected and cells are lysed by a 50 mM Tris-HCl buffer containing 1 mM PMSF, 2 mM EDTA, 0.5 mM Dtt, 10 microgram/ml leupeptin, 10 microgram/ml aprotinine and 10 mM TC.
Cells are kept on ice, e.g., for 10 minutes, and then sonicated for 10 sec.
After centrifugation at 12000 g for 10 minutes at 4° C., human Alk-Smase activity and protein concentrations were determined.
Cos-7 cells transfected with a mock-vector is used as a control.

[4] = Lysophospholipase test with 14C-palmitoyl labelled lysophosphatidylcholine, TLC separation; format: biochemical
Method: At present the most intriguing functional similarity between Alk-Smase and NPP is the earlier observation that NPP2 has lysophospholipase D activity (M Umezo-Gozo et al J Cell Biol 2002; 158:227-33). To determine whether Alk-Smase also has lysophospholipase D activity, a trace amount of ^14C-palmitoyl labelled 1palmitoyl-lysosphosphatidylcholine was incubated with Alk-Smase using the optimal incubation conditions previously described (R D Duan and Å Nilsson Methods Enzymol 2000; 311:276-86). Lipids were then extracted according to known methods (Bligh and Dyer J Biochem Physiol 1959; 37:911-917), and separated on silica gel G plates that were developed in chloroform:methanol:water:acetic acid 25:20:0.3:3. The silica gel separates lysophosphatidylcholine and lysophosphatidic acid that are formed if there is a lysophospholipase D and monoglyceride formed by lysophospholipase C. […] It is therefore further disclosed herein that Alk-Smase may also influence cellular functions by removing lysophosphatidylcholine which can then not be converted to lysophosphatidic acid. Lysophosphatidic acid is a metabolite that stimulates growth of colon tumour cells. Our earlier studies have shown that Alk-Smase is not a general phosphlipase C since it has low activity against phosphatidylcholine (RD Duan, A Nilsson Methods Enzymol 2000; 311:276-86).

[5] = Characterisation of Alk-Smase: sphingomyelin hydrolysis (pH dependence, hydrolytic capacity); conditions: for hydrolytic capacity (Vmax, Lineweaver-Burk plot): sphingomyelin hydrolysed: by 1 mg of the enzyme in one hour
Method: To distinguish whether the enzyme was different from the Mg dependent neutral Smase, activity at pH 7.5 in the presence of 4 mM Mg2+ in comparison wit pH 8.5 in the presence of 2 mM EDTA was assayed.

Molecule: C[C@H](CCC(=O)NCCC[N+](C)(C)CCCS(=O)(=O)[O-])[C@H]1CC[C@H]2[C@@H]3[C@H](O)C[C@@H]4C[C@H](O)CC[C@]4(C)[C@H]3C[C@H](O)[C@]12C [CHAPS]
effect on TC stimulation of Alk-Smase (human Alk-Smase [1]): blocked the stimulatory effect of TC
effect on Alk-Smase activity (human Alk-Smase [1]; very low concentration (0.025 mM)): only slightly increased the activity

effect of increasing concentrations of divalent cation on Alk-Smase activity (human Alk-Smase [2]): slightly increased
Molecule: [Ca+2] [Ca2^+]

inhibition of Alk-Smase by EDTA (human Alk-Smase [1]): not inhibited
Molecule: O=C(O)CN(CCN(CC(=O)O)CC(=O)O)CC(=O)O [EDTA]
reversal of the Zn2+ inhibition of Alk-Smase (human Alk-Smase [1]; 2 mM EDTA): Most of the inhibitory effect of Zn2+ was reversed

effect of increasing concentrations of divalent cation on Alk-Smase activity (human Alk-Smase [2]): slightly increased
Molecule: [Mg+2] [Mg]

maximal stimulating effect of bile salt on human Alk-Smase (human Alk-Smase [1]; maximum at the CMC of each bile salt): far more effective than other bile salts
Molecule: C[C@H](CCC(=O)NCCS(=O)(=O)O)[C@H]1CC[C@H]2[C@@H]3[C@H](O)C[C@@H]4C[C@H](O)CC[C@]4(C)[C@H]3CC[C@]12C [TCDC, taurochenodeoxycholate]

IC50 (human Alk-Smase [1]; read-out: concentration giving 50% inhibition of Alk-Smase activity): 15 µM
Molecule: [Zn+2] [Zn2^+]

Molecule: N[C@@H](CCC(=O)N[C@@H](CS)C(=O)NCC(=O)O)C(=O)O [glutathione]
reduction of neutral Smase activity (bacterial neutral Smase; 7.5 mM glutathione): 98%
concentration above which neutral Smase activity is sharply abolished (bacterial neutral Smase): higher than 5 mM
reduction of Alk-Smase activity (human Alk-Smase [1]; 7.5 mM glutathione, reduced form): 1%
effect on Alk-Smase activity (in words) (human Alk-Smase [1]; reduced form of glutathione): only slightly reduced

effect on human Alk-Smase activity (human Alk-Smase [1]; in the presence or absence of TC (10 mM)): strongly inhibits
Molecule: Triton X 100

B1: rat Alk-Smase: purified rat intestinal alkaline sphingomyelinase (protein, UniProt Q5EZ72 22-439, looked up)
Ectonucleotide …: GPVQRQQQHKLLLVSFDGFRWNYDQDVETPNLDSMAQEGVKARYMTPAFVTMTSPCHFTLVTGKYIENHGVVHNMFYNTTNKVRLPYHATLGIQRWWDNGSIPIWITAQRQGLKTGSFFYPGGNVTYQGEAVTMSRKEGVLHNYKNETEWRANVDTVMKWFTEEDVSLVTLYFGEPDSTGHKYGPESQERKDMVKQVDRTVGYLRDSIKRHHLTDSLNLIITSDHGMTTVNKKASDLVEFHKFPNFTFRDIEFELLDYGPNGMLIPKEGMLEKVYSVLKDAHPRLHVYKKEDFPKTFHYANNPRITSLLMYSDLGYVIHGRVNVQFNSGEHGFDNQDMDMKTIFRAVGPSFKAGLEVEPFESVHVYELMCQLLGIVPEPNDGHPGVLQPMLRSGSPLSRQHHLVVVLMGILTGLAKVV
effect on proliferation / cell growth of HT29 cells [3]: dose-dependently inhibited cell growth
effect on proliferation / cell growth of HT29 cells ([3]; listed as rat alkaline Smase): inhibit proliferation
effect on DNA synthesis of HT-29 cells [3]: decreased DNA synthesis

B2: amino acid 1-415: C-truncated human Alk-Smase, 415 amino acid sequence encoded by cDNA 21-1285 (protein, listed as Homo sapiens)
chain: MRGPAVLLTVALATLLAPGAGAPVQSQGSQNKLLLVSFDGFRWNYDQDVDTPNLDAMARDGVKARYMTPAFVTMTSPCHFTLVTGKYIENHGVVHNMYYNTTSKVKLPYHATLGIQRWWDNGSVPIWITAQRQGLRAGSFFYPGGNVTYQGVAVTRSRKEGIAHNYKNETEWRANIDTVMAWFTEEDLDLVTLYFGEPDSTGHRYGPESPERREMVRQVDRTVGYLRESIARNHLTDRLNLIITSDHGMTTVDKRAGDLVEFHKFPNFTFRDIEFELLDYGPNGMLLPKEGRLEKVYDALKDAHPKLHVYKKEAFPEAFHYANNPRVTPLLMYSDLGYVIHGRINVQFNNGEHGFDNKDMDMKTIFRAVGPSFRAGLEVEPFESVHVYELMCRLLGIVPEANDGHLATLLPMLHT
Alk-Smase activity produced, C-truncated versus full sequence cDNA (Cos-7 cells; transfected cells, FIG. 13): higher

formation of lysophosphatidic acid (lysophospholipase D activity) [4]: not demonstrated
activity at pH 8.5 with 2 mM EDTA compared with pH 7.5 with 4 mM Mg2+ [5]: significantly higher
activity at pH 7.5 relative to maximal activity ([5]; pH 7.5 versus pH 8.5): about 68%
B3: human Alk-Smase: human intestinal alkaline sphingomyelinase, 458 amino acid protein purified from small intestinal content (protein, listed as Homo sapiens)
chain: MRGPAVLLTVALATLLAPGAGAPVQSQGSQNKLLLVSFDGFRWNYDQDVDTPNLDAMARDGVKARYMTPAFVTMTSPCHFTLVTGKYIENHGVVHNMYYNTTSKVKLPYHATLGIQRWWDNGSVPIWITAQRQGLRAGSFFYPGGNVTYQGVAVTRSRKEGIAHNYKNETEWRANIDTVMAWFTEEDLDLVTLYFGEPDSTGHRYGPESPERREMVRQVDRTVGYLRESIARNHLTDRLNLIITSDHGMTTVDKRAGDLVEFHKFPNFTFRDIEFELLDYGPNGMLLPKEGRLEKVYDALKDAHPKLHVYKKEAFPEAFHYANNPRVTPLLMYSDLGYVIHGRINVQFNNGEHGFDNKDMDMKTIFRAVGPSFRAGLEVEPFESVHVYELMCRLLGIVPEANDGHLATLLPMLHTESALPPDALLVADGPCLPSLSQAKGCMPLSPAAPTPAWLLWCW
increase of human Alk-Smase activity in the medium (Cos-7 cells; Cos-7 cells transfected with pCMV-sports6-Smase, 48 h): 5 fold
lysophosphatidylcholine degraded to 14C-monoglyceride ([4]; in one hour, optimal incubation conditions): 80%
effect on proliferation / cell growth of HT29 cells [3]: inhibit proliferation
effect on DNA synthesis of HT-29 cells [3]: decreased DNA synthesis
hydrolytic capacity (Vmax, Lineweaver-Burk plot): sphingomyelin hydrolysed [5]: 11 mmol
hydrolytic capacity (Vmax, Lineweaver-Burk plot): sphingomyelin hydrolysed ([5]; listed as Alk-Smase): about 11 mmole
